This test deals with T1, KRAS G12C 1-169, his-tagged protein, GDP-loaded (Homo sapiens, UniProt P01116, G12C).
T1 construct: KRAS G12C 1-169, his-tagged protein, GDP-loaded
Nature of the test: Biochemical assay: covalent modification of KRAS G12C measured by mass spectrometry (RapidFire/TOF or Q-Exactive). Type of test: binding. The note with it: covalent binding to (modification of) KRAS G12C after a ten minute incubation period. The protocol: Test compounds were prepared as 10 mM stock solutions in DMSO (Fisher cat #BP-231-100). KRAS G12C 1-169, his-tagged protein, GDP-loaded is diluted to 2 μM or 0.5 μM in buffer (20 mM Hepes, 150 mM NaCl, 1 mM MgCl2). Compounds were tested for activity as follows:
Compounds were diluted to 50× final test concentration in DMSO in 96-well storage plates. Compound stock solutions were vortexed before use and observed carefully for any sign of precipitation. Dilutions are as follow: • For 100 μM final compound concentration, compounds were diluted to 5000 μM (5 μL 10 mM compound stock+5 μL DMSO and mixed well by pipetting. • For 30 μM final compound concentration, compounds were diluted to 1500 μM (3 μL 10 mM compound stock+17 μL DMSO) and mixed well by pipetting. • For 10 μM final compound concentration, compounds were diluted to 500 μM (2 μL 10 mM compound stock+38 μL DMSO) and mixed well by pipetting. 49 μL of the stock protein solution was added to each well of a 96-well PCR plate (Fisher cat #1423027). 1 μL of the diluted 50× compounds were added to appropriate wells in the PCR plate using 12-channel pipettor. Reactions were mixed carefully and thoroughly by pipetting up/down with a 200 μL multi-channel pipettor. The plate was sealed well with aluminum plate seal, and stored in drawer at room temperature for 10 minutes, 30 minutes, 2 hours or 24 hours. 5 μL of 2% formic acid (Fisher cat #A117) in de-ionized H2O was then added to each well followed by mixing with a pipette. The plate was then resealed with aluminum seal and stored on dry ice until analyzed as described below.
The above described assays were analyzed by mass spectrometry according to one of the following two procedures:
The MS instrument was set to positive polarity, 2 GHz resolution, and low mass (1700) mode and allowed to equilibrate for 30 minutes. The instrument was then calibrated, switched to acquisition mode and the appropriate method loaded.
After another 30 minute equilibration time, a blank batch (i.e., buffer) was run to ensure equipment is operating properly. The samples were thawed at 37° C. for 10 minutes, briefly centrifuged, and transfer to the bench top. Wells A1 and H12 were spiked with 1 μL 500 μM internal standard peptide, and the plates centrifuged at 2000×g for 5 minutes. The method was then run and masses of each individual well recorded.
The masses (for which integration data is desired) for each well were pasted into the platemap and exported from the analysis. Masses for the internal standards were exported as well. The data at 50 ppm was extracted for the +19 charge state, and identity of well A1 was assigned using the internal standard spike and integrated. Peak data was exported as a TOF list and the above steps were repeated individually, for the +20, 21, 22, 23, 24, and 25 charge states.
The masses and peak intensities of KRAS G12C protein species were measured using a Dionex RSLCnano system (Thermo Scientific) connected to a Q Exactive Plus mass spectrometer (Thermo Scientific).
[…] of sample was each loaded onto a Aeris™ 3.6 μm WIDEPORE C4 200 Å, LC Column 50×2.1 mm column maintained at 40° C. at a flow rate of 600 μL/min with 20% Solvent A (0.1% formic acid in H2O) and […] (0.1% formic acid in acetonitrile). The liquid chromatography conditions were 20% solvent B for 1 minute, 20% to 60% solvent B for 1.5 minutes, 60% to 90% solvent for 0.5 minute, 90% solvent B for 0.2 minute, 90% to 20% solvent B for 0.2 minute, and then equilibrated for 1.6 minutes before the following sample injection. The flow rate was maintained at 600 μL/min throughout the sample analysis.
The mass spectrometer was operated in profile mode at a resolution of 17500, 5 microscans, using 50 msec max injection time and an AGC target of 1×10^6, and a full mass range from 800-1850 m/z was recorded. The HCD trapping gas was optimized for maximum sensitivity for intact proteins. […]
With `C=CC(=O)N1CCN(c2nc(N3CC(N(C)C)C3)nc3c(F)c(-c4c(C)ccc5[nH]nc(C6CC6)c45)c(Cl)cc23)CC1` (atropisomer, axis not shown) [Compound 104, (R)-1-(4-(6-chloro-7-(3-cyclopropyl-5-methyl-1H-indazol-4-yl)-2-(3-(dimethylamino)azetidin-1-yl)-8-fluoroquinazolin-4-yl)piperazin-1-yl)prop-2-en-1-one], the Binding % entry is recorded as “+++ (+++ indicates binding activity greater than 80%)”.
Regarding `C=CC(=O)N1C[C@@H](C)N(c2nc(N3CC(N(C)C)C3)nc3c(F)c(-c4c(C)ccc5[nH]nc(C6CC6)c45)c(Cl)cc23)C[C@@H]1C` (atropisomer, axis not shown) [Compound 253, 1-((2S,5R)-4-((R)-6-chloro-7-(3-cyclopropyl-5-methyl-1H-indazol-4-yl)-2-(3-(dimethylamino)azetidin-1-yl)-8-fluoroquinazolin-4-yl)-2,5-dimethylpiperazin-1-yl)prop-2-en-1-one], the Binding % entry is “+ (+ indicates binding activity greater than 0% and up to 50%)”.
Take `C=CC(=O)N1C[C@H](C)N(c2nc(N3CC(C(N)=O)C3)nc3c(F)c(-c4c(C)ccc5cnn(C)c45)c(Cl)cc23)C[C@H]1C` [Compound 244, 1-(4-((2S,5R)-4-acryloyl-2,5-dimethylpiperazin-1-yl)-6-chloro-7-(1,6-dimethyl-1H-indazol-7-yl)-8-fluoroquinazolin-2-yl)azetidine-3-carboxamide]: the Binding % result was “++ (++ indicates binding activity from 50 to 80%)”.
As to `C=CC(=O)N1C[C@H](C)N(c2nc(OCCN3CC(F)(F)C3)nc3c(F)c(-c4c(C)ccc5[nH]nc(C6CC6)c45)c(Cl)cc23)C[C@H]1C` (atropisomer, axis not shown) [Compound 122, 1-((2R,5S)-4-((R)-6-chloro-7-(3-cyclopropyl-5-methyl-1H-indazol-4-yl)-2-(2-(3,3-difluoroazetidin-1-yl)ethoxy)-8-fluoroquinazolin-4-yl)-2,5-dimethylpiperazin-1-yl)prop-2-en-1-one], the Binding % entry is given as “+++ (+++ indicates binding activity greater than 80%)”.
Consider `C=CC(=O)N1C[C@@H](C)N(c2nc(N3CC(N(C)C)C3)nc3c(F)c(-c4c(C)ccc5cnn(C)c45)c(Cl)cc23)C[C@@H]1C` (atropisomer, axis not shown) [Compound 245, 1-((2S,5R)-4-((S)-6-chloro-7-(1,6-dimethyl-1H-indazol-7-yl)-2-(3-(dimethylamino)azetidin-1-yl)-8-fluoroquinazolin-4-yl)-2,5-dimethylpiperazin-1-yl)prop-2-en-1-one], for which the Binding % result was “+ (+ indicates binding activity greater than 0% and up to 50%)”.
With `C=CC(=O)N1C[C@H](C)N(c2nc(OCCN3CC(F)(F)C3)nc3c(F)c(-c4c(C)ccc5cnn(C)c45)c(Cl)cc23)C[C@H]1C` (atropisomer, axis not shown) [Compound 146, 1-((2R,5S)-4-((S)-6-chloro-2-(2-(3,3-difluoroazetidin-1-yl)ethoxy)-7-(1,6-dimethyl-1H-indazol-7-yl)-8-fluoroquinazolin-4-yl)-2,5-dimethylpiperazin-1-yl)prop-2-en-1-one], the Binding % result is “+ (+ indicates binding activity greater than 0% and up to 50%)”.
In the case of `C=CC(=O)N1C[C@H](C)N(c2nc(O[C@H](C)CN(C)C)nc3c(F)c(-c4c(C)ccc5cnn(C)c45)c(Cl)cc23)C[C@H]1C` [Compound 230, 1-((2R,5S)-4-(6-chloro-7-(1,6-dimethyl-1H-indazol-7-yl)-2-((R)-1-(dimethylamino)propan-2-yloxy)-8-fluoroquinazolin-4-yl)-2,5-dimethylpiperazin-1-yl)prop-2-en-1-one], the Binding % entry is on record as “++ (++ indicates binding activity from 50 to 80%)”.
As for `C=CC(=O)N1C[C@H](C)N(c2nc(OCCN3CCCC(F)(F)C3)nc3c(F)c(-c4c(C)ccc5[nH]nc(N)c45)c(Cl)cc23)C[C@H]1C` [Compound 114, 1-((2R,5S)-4-(7-(3-amino-5-methyl-1H-indazol-4-yl)-6-chloro-2-(2-(3,3-difluoropiperidin-1-yl)ethoxy)-8-fluoroquinazolin-4-yl)-2,5-dimethylpiperazin-1-yl)prop-2-en-1-one], the Binding % result is “+++ (+++ indicates binding activity greater than 80%)”.
The entry for `C=CC(=O)N1C[C@H](C)N(c2nc(NCCN3CCOCC3)nc3c(F)c(-c4c(C)ccc5onc(N)c45)c(Cl)cc23)C[C@H]1C` [Compound 92, 1-((2R,5S)-4-(7-(3-amino-5-methylbenzo[d]isoxazol-4-yl)-6-chloro-8-fluoro-2-(2-morpholinoethylamino)quinazolin-4-yl)-2,5-dimethylpiperazin-1-yl)prop-2-en-1-one] is “++ (++ indicates binding activity from 50 to 80%)”.
Regarding `C=CC(=O)N1C[C@H](C)N(c2nc(N3CC(N(C)C)C3)nc3c(F)c(-c4c(C)ccc5sncc45)c(Cl)cc23)C[C@H]1C` [Compound 124, 1-((2R,5S)-4-(6-chloro-2-(3-(dimethylamino)azetidin-1-yl)-8-fluoro-7-(5-methylbenzo[d]isothia-zol-4-yl)quinazolin-4-yl)-2,5-dimethylpiperazin-1-yl)prop-2-en-1-one], the Binding % result is “++ (++ indicates binding activity from 50 to 80%)”.
In the case of `C=CC(=O)N1C[C@H](C)N(c2nc(OCCN3CCOCC3)nc3c(F)c(-c4c(C)ccc5onc(N)c45)c(Cl)cc23)C[C@H]1C` [Compound 81, 1-((2R,5S)-4-(7-(3-amino-5-methylbenzo[d]isoxazol-4-yl)-6-chloro-8-fluoro-2-(2-morpholinoethoxy)quina-zolin-4-yl)-2,5-dimethylpiperazin-1-yl)prop-2-en-1-one], the Binding % result is listed as “++ (++ indicates binding activity from 50 to 80%)”.
Take `C=CC(=O)N1C[C@H](C)N(c2nc(N3CC(N(C)C)C3)nc3c(F)c(-c4cccc5snc(C)c45)c(Cl)cc23)C[C@H]1C` [Compound 157, 1-((2R,5S)-4-(6-chloro-2-(3-(dimethylamino)azetidin-1-yl)-8-fluoro-7-(3-methylbenzo[d]isothia-zol-4-yl)quinazolin-4-yl)-2,5-dimethylpiperazin-1-yl)prop-2-en-1-one]: the Binding % entry was “+++ (+++ indicates binding activity greater than 80%)”.
As for `C=CC(=O)N1C[C@H](C)N(c2nc(OC3CCOC3)nc3c(F)c(-c4c(C)ccc5cnn(C)c45)c(Cl)cc23)C[C@H]1C` (stereo partly drawn) [Compound 216, 1-((2R,5S)-4-(6-chloro-7-(1,6-dimethyl-1H-indazol-7-yl)-8-fluoro-2-(tetrahydrofuran-3-yloxy)quinazolin-4-yl)-2,5-dimethylpiperazin-1-yl)prop-2-en-1-one], the Binding % result is reported as “++ (++ indicates binding activity from 50 to 80%)”.
As to `C=CC(=O)N1C[C@H](C)N(c2nc(N3CC(N)C3)nc3c(F)c(-c4c(C)ccc5[nH]nc(C6CC6)c45)c(Cl)cc23)C[C@H]1C` [Compound 126, 1-((2R,5S)-4-(2-(3-aminoazetidin-1-yl)-6-chloro-7-(3-cyclopropyl-5-methyl-1H-indazol-4-yl)-8-fluoroquinazolin-4-yl)-2,5-dimethylpiperazin-1-yl)prop-2-en-1-one], the Binding % result is reported as “+++ (+++ indicates binding activity greater than 80%)”.

(Values after patent publication US11377441B2, “Covalent inhibitors of KRAS” (Araxes Pharma LLC, priority 2017, dated 2022).)
